Assays:
[1] = test system: β-galactosidase in tumor sections; assay: IHC analysis of β-galactosidase staining in intraliver tumors after i.v. dosing of Lipid-Based Particles; assay type: in vivo, Scid female mice; conditions: intraliver tumor model, Scid mice, tail vein (i.v) injection
Method: The animal studies were carried out in accordance with internal Institutional Animal Care and Use Committee (IACUC) guidelines at Abbott Laboratories. Scid female mice at 6 to 8 weeks of age were obtained from Charles River Laboratory and used for […] tumor models. Mouse livers were exposed by vertical incision on mouse abdomens and the tumor cells were directly injected into the livers. The incision was closed by suture and wound clips. All cell lines used for creating xenograft tumors were subjected to the IMPACT profile I test (18 agents) at the University of Missouri Research Animal Diagnostic and Investigative Laboratory, and all cell lines were found negative for the 18 infectious agents tested. Tumor cells were suspended in a 1:1 mixture of S-MEM (Invitrogen, Carlsbad, Calif.) and matrigel (BD Bioscience, San Jose, Calif.) and inoculated at 1×10E6 cells per animal. Treatments were started 3 4 weeks after tumor inoculation. Formulated or unformulated siRNAs were administrated via tail vein (i.v) injection. IHC was carried out as previously described [Li, L., et al., Evaluating hypoxia-inducible factor-1alpha as a cancer therapeutic target via inducible RNA interference in vivo. Cancer Res, 2005. 65(16): p. 7249-58]. Briefly, tumors were excised, cut into pieces of less than 3 mm in thickness and immediately fixed in buffered formalin solution with neutral pH (Sigma, St. Louis, Mo.). The formalin-fixed and paraffin-embedded tumor sections were then used for staining. The mouse anti-β-galactosidase mAb (Promega, Madison, Wis.) was used to detect β-galactosidase in tumor sections. […] IHC images were acquired using the Nikon TE2000 inverted microscope. The β-galactosidase staining was evaluated by 2 people independently based on the scoring system listed below. The average of the score was calculated for each tumor.

[2] = RiboGreen assay of siRNA encapsulation efficiency, in vivo formulations of Lipid-Based Particles; assay type: physicochemical; conditions: lipid:siRNA 25:1
Method: (§1) RNA concentration and encapsulation efficiency were determined using a Quant-iT® Ribogreen RNA reagent and kit available from Invitrogen. The siRNA was released from the Lipid-Based Particle using one of the following reagents: ethanol, Triton X-100, or phenol/chloroform. The siRNA concentration is quantified using fluorescent reading at 480 nm/520 nm.
The lipid solution was prepared (10 mg/ml) by dissolving the lipid in 200 proof ethanol. The lipid mixture solution is prepared according to the above composition in Table 5.
An siRNA (TetR_ODC—12, G.G.G.G.A.A.A.G.C.U.G.G.C.A.A.G.A.U.U.U.U SEQ ID NO: 1) (ThermoFisher) solution is prepared in a concentration of 10 mg/ml by dissolving 10 mg siRNA in 1 ml of DNAse/RNAse-free distilled water.
(§2) A round bottom flask was submerged into a 65° C. water bath. Citrate buffer (37.5 ml) of pH 4.0 was pipetted into the flask. The solution was stirred by a magnetic stirring bar at a speed of 900 rpm. Both the pH 4.0 citrate buffer and the lipid solution were pre-warmed in the 65° C. water bath for about 3 minutes. A siRNA solution (0.5 ml) was pipetted into the pH 4.0 citrate buffer. The 12.5 ml lipid mixture solution was injected through a 27 gauge needle into the citrate buffer in about 30 seconds. The needle tip was inserted into the solution during the injection. The resulting solution was stirred for 5 minutes at a speed of 900 rpm. The flask was pulled up from the water bath and a 50 ml pH 7.4 PBS buffer was added into the flask. The final solution was further mixed at a speed of 900 rpm for 5 minutes. For the diafiltration process, a dialysis filter (Millipore, 100K, Cat#PXB100C50) was used to remove ethanol in the above solution. When the volume was reduced to 20 ml during the initial diafiltration, 20 ml of pH 7.4 PBS was added to the sample solution. The diafiltration was continued until the volume was reduced to 20 ml. The diafiltration process was repeated 4 times. The volume of the sample solution was reduced to about 12 ml and pH 7.4 PBS was added to make the final volume of 15 ml. The 15 ml solution was filtered sequentially through the 0.45 and 0.22 μm sterile PVDF membrane filters (Millipore) and immediately transferred into a sterile vial.

[3] = Particle sizing assay (Zetasizer Nano ZS), in vivo formulations; assay type: physicochemical; conditions: lipid:siRNA 25:1
Method: as §2
For measurements of particle sizes and size distributions (PDI), lipid-based particles were prepared as described above. The particle solution (60 μL) was pipetted into a disposable cuvette (UVette, Eppendorf, cat#952010051) and measured in the “General Purpose” mode. Attenuator and position were optimized by the device. Measurements were performed using a Zetasizer Nano ZS (Malvern Instruments) equipped with a 4 mW He—Ne laser at a wavelength of 633 nm at 25° C. Scattered light was detected at a 173° backward scattering angle. The viscosity and refractive index of water at 25° C. was used for data analysis with the Dispersion Technology Software 5.00 (Malvern Instruments).

[4] = Particle sizing by dynamic light scattering (DynaPro plate reader), in vitro formulations; assay type: physicochemical; conditions: in vitro formulation b: Cationic lipid/PEG-cholesterol/DSPC/Chol 45/10/15/30 wt %, lipid:siRNA 25:1
Method: (§3) The siRNA concentrations were measured using Quanti-iT RiboGreen RNA reagent (Molecular Probes, (R11490)). Vesicle sizes were characterized by dynamic light scattering with a DynaPro™ Plate Reader (Wyatt Technology) in 96-well half-area UV plate (Coring) after diluting the formulation sample (20 μL) in phosphate buffered saline (80 μL) at a pH of about 7-8. A 1% agarose gel-based assay was used for analyzing nuclease degradation and protection. Encapsulation efficiency (EE) was calculated using data obtained from a RiboGreen assay.
Particle sizes and size distributions (PDI) were characterized by using dynamic light scattering (DLS). A DLS plate reader (Dynapro™, Wyatt Technology) was used for the DLS measurement. This DLS plate reader uses an 830 nm laser and the scattering angle is 158°. It also can control temperature from 4° C. to 70° C. A 96-well format was employed for the samples.
Samples for DLS analysis were prepared by mixing 20 μL of each sample stock solution with 80 μL PBS directly in the 96-well plate (#3697, Corning). Sample mixing was accomplished using a microplate shaker (Orbis, Mikura Ltd.). Plates were read at 20° C. with an acquisition time of 50 seconds for each sample, and data was analyzed with Wyatt Technology's Dynamics V6 software. To rule out potential multiple scattering artifacts, a second plate at 4-fold reduced sample concentrations was independently prepared by mixing 5 μL stock solutions with 95 μL PBS. Under our experimental conditions the results at the two concentrations were very similar, and the final reported result for each sample represents the average of values obtained from the two plates.

[5] = RiboGreen assay of siRNA encapsulation efficiency, in vitro formulations of Lipid-Based Particles; assay type: physicochemical; conditions: in vitro formulation b: Cationic lipid/PEG-cholesterol/DSPC/Chol 45/10/15/30 wt %, lipid:siRNA 25:1
Method: The mixing solution of cationic lipids, cholesterol, non-cationic lipids and PEG-lipids was prepared in ethanol (total concentration at 10 mg/mL). siSTABLE (purchased from ThermoFisher) (sense-5′ GGGGAAAGCUGGCAAGAUUUU-3′SEQ ID NO. 1, antisense-5′-AAUCUUGCCAGCUUUCCCCUU-3′ SEQ ID NO: 2) % stock solution was prepared in 10 mg/mL of solution by dissolving 10 mg siRNA in 1 mL of RNAse-free UltraPure Water. The calculated amount of siRNA solution was added to 1 mL of citrate buffer (pH 4.0, 20 mM), to provide an siRNA concentration of 0.2 mg/mL, and warmed to 60 C. The calculated amount of lipid solution was warmed to 60 C, transferred to a 0.5 mL syringe with 28½ gauge needle, and injected into the citrate buffer with stirring at 60 C. After 3 minutes, 3 mL of PBS solution at room temperature (pH 7.4) was added into the lipid mixture with stirring. The Lipid-Based Particle solution was cooled to room temperature.
as §3, §1

[6] = in vivo formulation A: Cationic lipid/Example 73/DSPC/Chol 45/10/15/30 wt %
[7] = in vivo formulation I: Cationic lipid/PEG-DPPE/DSPC/Chol 45/10/15/30 wt %
[8] = in vivo formulation J: Cationic lipid/PEG-DSPE/DSPC/Chol 45/10/15/30 wt %
[9] = in vivo formulation L: Cationic lipid/PEG-DPG/DSPC/Chol 45/10/15/30 wt %
[10] = in vivo formulation C: Cationic lipid/Pal-PEG-Cera/DSPC/Chol 45/10/15/30 wt %

| SMILES | % Encapsulation Efficiency [2, 6] [%] | Size [3, 6] [nm] | Size distribution (PDI) [3, 6] | Size [4] [nm] | % Encapsulation Efficiency [5] [%] | further results |
| --- | --- | --- | --- | --- | --- | --- |
| C[C@H]1c2cccc(O)c2C(=O)C2=C(O)[C@]3(O)C(=O)C(C(N)=O)=C(O)[C@@H](N(C)C)[C@@H]3[C@@H](O)[C@@H]21 [Doxycycline] | – | – | – | – | – | In vivo response: β-galactosidase IHC staining score ([1]; column 1): +++ (there was 80% of the section with strong straining); In vivo response: β-galactosidase IHC staining score ([1]; column 2): +++ (there was 80% of the section with strong straining); In vivo response: β-galactosidase IHC staining score ([1]; column 3): +++ (there was 80% of the section with strong straining); In vivo response: β-galactosidase IHC staining score ([1]; column 4): +++ (there was 80% of the section with strong straining); In vivo response: β-galactosidase IHC staining score ([1]; column 5): +++ (there was 80% of the section with strong straining); In vivo response: β-galactosidase IHC staining score ([1]; column 6): +++ (there was 80% of the section with strong straining) |
| CCCCC/C=C\C/C=C\CCCCCCCCOCC(CCN1CCCCC1)OCCCCCCCC/C=C\C/C=C\CCCCC (stereo not drawn) [Example 1, 1-{3,4-bis[(9Z,12Z)-octadeca-9,12-dienyloxy]butyl}piperidine] | 74 | 108 | (0.18) | 96.3 | – | – |
| CCCCC/C=C\C/C=C\CCCCCCCCOCC(CCN(C)CCOC)OCCCCCCCC/C=C\C/C=C\CCCCC (stereo not drawn) [Example 7, N-(2-methoxyethyl)-N-methyl-3,4-bis[(9Z,12Z)-octadeca-9,12-dienyloxy]butan-1-amine] | 74 | 140 | (0.15) | 123.2 | 96.9 | – |
| CCCCC/C=C\C/C=C\CCCCCCCCOCC(CCN(C)CCN(C)C)OCCCCCCCC/C=C\C/C=C\CCCCC (stereo not drawn) [Example 9, N-{3,4-bis[(9Z,12Z)-octadeca-9,12-dienyloxy]butyl}-N,N′,N′-trimethylethane-1,2-diamine] | 87.5 | 160 | (0.19) | 105.8 | 88.3 | % Encapsulation Efficiency [2, 7]: 98%; % Encapsulation Efficiency [2, 8]: 98%; % Encapsulation Efficiency [2, 9]: 98%; Size [3, 7]: 93.4 nm; Size distribution (PDI) [3, 7]: (0.069); Size [3, 8]: 98.1 nm; Size distribution (PDI) [3, 8]: (0.078); Size [3, 9]: 98.7 nm; Size distribution (PDI) [3, 9]: (0.056) |
| CCCCC/C=C\C/C=C\CCCCCCCCOCC(CCN1CCC(N(C)C)C1)OCCCCCCCC/C=C\C/C=C\CCCCC (stereo not drawn) [Example 17, 1-{3,4-bis[(9Z,12Z)-octadeca-9,12-dienyloxy]butyl}-N,N-dimethylpyrrolidin-3-amine] | – | 149 | (0.21) | 114.4 | 86.2 | % Encapsulation Efficiency [2, 10]: 97%; Size [3, 10]: 101 nm; Size distribution (PDI) [3, 10]: (0.154) |

Source: patent US20100055169A1, “CATIONIC LIPIDS AND USES THEREOF” (ABBOTT LABORATORIES, priority 2008, published 2010)
